The values that follow come from ChEMBL document CHEMBL5390297, “New Teixobactin Analogues with a Total Lactam Ring” (2023).

Holding throughout (assay type): functional
One assay has as its system Nakaseomyces glabratus. The experiment in a line: Antifungal activity against Candida glabrata ATCC 15126 assessed as reduction in bacterial growth incubated for 24 hrs by CLSI based broth microdilution method. In general terms: Broth dilution looks for growth in wells or tubes with falling amounts of substance.
For another assay, the system named is Escherichia coli. The experiment in a line: Antibacterial activity against Escherichia coli ATCC 25922 assessed as reduction in bacterial growth incubated for 18 hrs by CLSI based broth microdilution method.
Assay [1] has as its system Staphylococcus aureus. The experiment in a line: Antibacterial activity against Staphylococcus aureus ATCC 25923 assessed as reduction in bacterial growth incubated for 18 hrs by CLSI based broth microdilution method.
In assay [2] the test system is Staphylococcus epidermidis. The experiment in a line: Antibacterial activity against Staphylococcus epidermidis ATCC 14990 assessed as reduction in bacterial growth incubated for 18 hrs by CLSI based broth microdilution method.
Assay [3] concerns Staphylococcus aureus. The experiment in a line: Antibacterial activity against methicillin-resistant Staphylococcus aureus ATCC 33591 assessed as reduction in bacterial growth incubated for 24 hrs by CLSI based broth microdilution method.

Structures are written as SMILES. In brackets after ≈: the same amount, converted by molar mass.

Take `CC[C@H](C)[C@@H]1NC(=O)[C@H](CCCNC(=N)N)NC(=O)[C@H](C)NC(=O)[C@H](NC(=O)[C@H](CO)NC(=O)[C@@H](NC(=O)[C@H](NC(=O)[C@@H](CCC(N)=O)NC(=O)[C@H](CO)NC(=O)[C@@H](NC(=O)[C@@H](Cc2ccccc2)NC)[C@@H](C)CC)[C@@H](C)CC)[C@@H](C)CC)CNC1=O`: the minimum inhibitory concentration (MIC) in the assay with Nakaseomyces glabratus and in the assay with Escherichia coli was above 512 mg/L each time.
`CCCC[C@@H]1NC(=O)[C@H](CCCNC(=N)N)NC(=O)[C@H](C)NC(=O)[C@H](NC(=O)[C@H](CO)NC(=O)[C@@H](NC(=O)[C@H](NC(=O)[C@@H](CCC(N)=O)NC(=O)[C@H](CO)NC(=O)[C@@H](NC(=O)[C@H](N)Cc2ccccc2)[C@@H](C)CC)[C@@H](C)CC)[C@@H](C)CC)CNC1=O`: the MIC (in general, the smallest concentration in the dilution series that meets the test's criterion for growth inhibition) in the assay on Staphylococcus aureus [1] was 4 mg/L (≈ 3.29 µM); in assay [2], 8 mg/L (≈ 6.58 µM); in the assay on Staphylococcus aureus [3] it was 4 mg/L (≈ 3.29 µM); with Nakaseomyces glabratus it was above 512 mg/L; in the assay with Escherichia coli it was above 512 mg/L.
As to `CC[C@H](C)[C@H](NC(=O)[C@H](N)Cc1ccccc1)C(=O)N[C@@H](CO)C(=O)N[C@H](CCC(N)=O)C(=O)N[C@@H](C(=O)N[C@H](C(=O)N[C@@H](CO)C(=O)N[C@@H]1CNC(=O)[C@H]([C@@H](C)CC)NC(=O)[C@H](CCCNC(=N)N)NC(=O)[C@H](C)NC1=O)[C@@H](C)CC)[C@@H](C)CC`, the MIC with Nakaseomyces glabratus and in the assay on Escherichia coli was above 512 mg/L each time.
Regarding `CCCC[C@@H]1NC(=O)[C@H](CCCNC(=N)N)NC(=O)[C@H](C)NC(=O)[C@H](NC(=O)[C@H](CO)NC(=O)[C@@H](NC(=O)[C@H](NC(=O)[C@@H](CCC(N)=O)NC(=O)[C@H](CO)NC(=O)[C@@H](NC(=O)[C@@H](Cc2ccccc2)NC)[C@@H](C)CC)[C@@H](C)CC)[C@@H](C)CC)CNC1=O`, the MIC in the assay with Nakaseomyces glabratus and in the assay with Escherichia coli was above 512 mg/L each time.
For the compound `CC[C@H](C)[C@H](NC(=O)[C@H](N)Cc1ccccc1)C(=O)N[C@@H](CO)C(=O)N[C@H](CCCNC(=N)N)C(=O)N[C@@H](C(=O)N[C@H](C(=O)N[C@@H](CO)C(=O)N[C@@H]1CNC(=O)[C@H]([C@@H](C)CC)NC(=O)[C@H](CCCNC(=N)N)NC(=O)[C@H](C)NC1=O)[C@@H](C)CC)[C@@H](C)CC`, the MIC with Nakaseomyces glabratus and in the assay with Escherichia coli was above 512 mg/L each time.
